Results on six molecules are retold here after PubChem BioAssay (NCI).

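96-well plates; 48 h exposure; 5 concentrations. Endpoints by linear interpolation between flanking doses. Not reached: highest tested concentration assigned. GI50: concentration for 50% inhibition of growth. Definition used: TGI = concentration required for complete inhibition of growth.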

Among the test systems are CCRF-CEM leukemia; TK-10 renal; CAKI-1 renal; SF-295 CNS; PC-3 prostate; NCI-H460 lung; SF-539 CNS; HOP-62 NSCLC; DU-145 prostate; K-562 leukemia.
Assay in all cases: growth of human tumour cells (NCI), 48 h

With `COc1cc(NS(C)(=O)=O)ccc1Cc1c2ccccc2nc2ccccc12`, the GI50 is 0.042 µM in the assay on CCRF-CEM leukemia; 0.228 µM in the assay with TK-10 renal; 0.139 µM with CAKI-1 renal; 0.0475 µM in the assay with SF-295 CNS; 0.461 µM with PC-3 prostate; less than 0.012 µM with NCI-H460 lung. For the same molecule, the GI50 with SF-539 CNS was 0.118 µM; in the assay with HOP-62 NSCLC it was 0.059 µM; in the assay on DU-145 prostate, 0.0571 µM; with K-562 leukemia, 0.307 µM. Further, the TGI in the assay on CCRF-CEM leukemia was determined as 0.751 µM; in the assay on TK-10 renal it was 1.45 µM; with CAKI-1 renal, 1.53 µM; with SF-295 CNS, 1.22 µM; in the assay on PC-3 prostate it was 15.6 µM; in the assay with NCI-H460 lung, 1.06 µM. The TGI with SF-539 CNS turned out to be 1.15 µM; in the assay with HOP-62 NSCLC, 0.368 µM; with DU-145 prostate, 0.649 µM; in the assay with K-562 leukemia it was 2.4 µM.
Take `COC(=O)C1=C(C(=O)ON)[C@@H]2C=C[C@@]1([C@@H](Cc1ccccc1)Nc1ccccc1)O2`: the GI50 was 2.43 µM with CCRF-CEM leukemia; 1.7 µM in the assay on TK-10 renal; 1.61 µM in the assay on CAKI-1 renal; 15.1 µM with SF-295 CNS; 1.84 µM with PC-3 prostate; 16.6 µM in the assay with NCI-H460 lung. The GI50 was 15.5 µM in the assay with SF-539 CNS, 16.9 µM with HOP-62 NSCLC, 1.84 µM in the assay with DU-145 prostate and 2.46 µM in the assay with K-562 leukemia. Moreover, the TGI was 8.2 µM in the assay with CCRF-CEM leukemia; 3.08 µM in the assay on TK-10 renal; 2.96 µM with CAKI-1 renal; 28.8 µM in the assay on SF-295 CNS; 3.74 µM in the assay on PC-3 prostate; 32.4 µM in the assay on NCI-H460 lung. Also, the TGI in the assay on SF-539 CNS came to 29 µM; in the assay on HOP-62 NSCLC it was 32.4 µM; in the assay on DU-145 prostate, 3.67 µM; with K-562 leukemia, 8.72 µM.
Turning to `CCN1C(=O)N(CC)C2C1NN=c1s/c(=C\c3ccc(C(F)(F)F)cc3)c(=O)n12` (centres undefined), the GI50 in the assay with CCRF-CEM leukemia was 0.328 µM; in the assay on TK-10 renal, 2.23 µM; with CAKI-1 renal it was 0.328 µM; in the assay with SF-295 CNS it was 0.33 µM; with PC-3 prostate, 0.385 µM; in the assay on NCI-H460 lung it was 0.365 µM. Also, the GI50 with SF-539 CNS was 0.247 µM; in the assay with HOP-62 NSCLC, 0.508 µM; in the assay with DU-145 prostate it was 0.41 µM; in the assay on K-562 leukemia, 0.294 µM. In addition, the TGI in the assay with CCRF-CEM leukemia is 17 µM; in the assay with TK-10 renal, more than 62.3 µM; with CAKI-1 renal, 36.4 µM; in the assay on SF-295 CNS, 31.2 µM; with PC-3 prostate it was more than 41.1 µM; in the assay on NCI-H460 lung it was 10.9 µM. The TGI was 0.785 µM in the assay with SF-539 CNS, 29.8 µM in the assay with HOP-62 NSCLC, more than 32.1 µM in the assay on DU-145 prostate and more than 39.8 µM in the assay with K-562 leukemia.
`FC(F)(F)c1cc(NC(=S)N2c3ccccc3-n3cccc3C2c2cccnc2)cc(C(F)(F)F)c1` (centres undefined): the GI50 is 4.1 µM with CCRF-CEM leukemia; 2.9 µM in the assay on TK-10 renal; 5.36 µM in the assay on CAKI-1 renal; 5.52 µM in the assay on SF-295 CNS; 10.5 µM in the assay with NCI-H460 lung; 14.7 µM in the assay on SF-539 CNS. The GI50 in the assay on HOP-62 NSCLC was 7.23 µM; with DU-145 prostate, 10.6 µM; in the assay with K-562 leukemia, 3.58 µM. Further, the TGI was 33.7 µM in the assay with CCRF-CEM leukemia; 9.39 µM in the assay on TK-10 renal; 21.7 µM in the assay on CAKI-1 renal; 21.1 µM in the assay with SF-295 CNS; 16.7 µM with PC-3 prostate; 23.4 µM with NCI-H460 lung. The TGI with SF-539 CNS amounted to 37.4 µM; in the assay on HOP-62 NSCLC it was 21.7 µM; in the assay on DU-145 prostate, 24.3 µM; with K-562 leukemia, 19.3 µM.
For `CC1(C)N=c2cc3c(cc2N1c1ccc(Cl)cc1)=Nc1ccccc1N3c1ccc(Cl)cc1`, the GI50 was 2.6 µM in the assay with CCRF-CEM leukemia; 3.84 µM in the assay on TK-10 renal; 18.2 µM in the assay with CAKI-1 renal; 2.08 µM with SF-295 CNS; 2.45 µM with PC-3 prostate; 4.78 µM in the assay with NCI-H460 lung. Besides, the GI50 in the assay on SF-539 CNS was 8.97 µM; in the assay with HOP-62 NSCLC, more than 100 µM; in the assay with DU-145 prostate it was 7.45 µM; in the assay on K-562 leukemia, 1.68 µM. The TGI is 13.9 µM with CCRF-CEM leukemia; 67 µM with TK-10 renal; more than 100 µM with CAKI-1 renal; 28.5 µM in the assay on SF-295 CNS; more than 100 µM with PC-3 prostate; more than 100 µM in the assay on NCI-H460 lung. Further, the TGI was more than 100 µM in the assay with SF-539 CNS, more than 100 µM with HOP-62 NSCLC, more than 100 µM with DU-145 prostate and 4.95 µM with K-562 leukemia.
For `O=[N+]([O-])c1ccc(N=Nc2c(Cl)cc(O)cc2Cl)cc1`, the GI50 in the assay on CCRF-CEM leukemia was 0.571 µM; in the assay with TK-10 renal, 4.34 µM; in the assay with CAKI-1 renal, 2.26 µM; with SF-295 CNS it was 1.56 µM; with PC-3 prostate, 2.72 µM; in the assay with NCI-H460 lung, 1.41 µM. The GI50 was 3.1 µM with SF-539 CNS, 2.17 µM in the assay with HOP-62 NSCLC, 2.45 µM in the assay with DU-145 prostate and 0.605 µM in the assay on K-562 leukemia. The TGI with CCRF-CEM leukemia came out at 7.25 µM; in the assay with TK-10 renal, 25.8 µM; with CAKI-1 renal it was 5.79 µM; in the assay with SF-295 CNS, 3.06 µM; in the assay with PC-3 prostate, 15.4 µM; with NCI-H460 lung, 4.77 µM. Moreover, the TGI in the assay on SF-539 CNS is 30.6 µM; in the assay with HOP-62 NSCLC, 5.87 µM; in the assay on DU-145 prostate it was 11.9 µM; with K-562 leukemia it was more than 100 µM.
